{"source": "patent US6740494B2", "about": "“Nuclear matrix protein fluid assay” (Matritech, Inc., priority 1991, dated 2004)", "test_system": "MCF7 cells", "experiment": "Cytotoxic reagent assay: Doxorubicin, MTT live cells and 41/7 ELISA", "assay_type": "cell-based", "settings": "450 nM, 1-96 hours, MCF7, FIG. 7", "method": "2. In this experiment, the effect of a known cancer chemotherapeutic agent (Doxorubicin, Sigma Inc.) on soluble nuclear matrix protein release into extracellular fluid was assessed.\nA standard curve for live cells was established with MCF7 cells (breast carcinoma, adherent). Cells were seeded into 6 well plates in 2 mls of DME complete (5% FCS+SerXtend) with 0.5 micrograms/ml mitomycin C (Sigma, Inc., Cincinnati) to prevent any cell growth.\nAfter incubating overnight at 37° C., 200 μl of 3-[4, 5 Dimethylthiazol-2-4] 2, 5-dipheny(tetrazoluim bromide), MTT, stock solution (5 mg/ml MTT in phosphate-buffered saline, Sigma, Inc.) were added to each well. After the plates were incubated for four hours at 37° C. and 5% CO2 the supernatants were aspirated off and 4 mls of DMSO (dimethyl sulfoxide) were added to solubilize remaining crystals. This was drawn off and the absorbance was read in the spectrophotometer at 562 nm against a blank of straight DMSO.\nCells were treated with Doxorubicin as follows: MCF7 cells were seeded into 6 well plates at a density of 1.3×10^5 cells/well in 2 mls DME complete. […]\nAt 1, 24, 48, 72, and 96 hours, the supernatants were removed and frozen at −20° C. to assay later. After replacing the supernatant with a fresh 2 ml of DME complete, the number of live cells was determined using the same procedure as for the standard curve. […]"}
{"smiles": "COc1cccc2c1C(=O)c1c(O)c3c(c(O)c1C2=O)C[C@@](O)(C(=O)CO)C[C@@H]3O[C@H]1C[C@H](N)[C@H](O)[C@H](C)O1", "note": "[Doxorubicin]", "values": [{"measurement": "cell viability (MTT live cells) versus nuclear matrix protein released (41/7 ELISA)", "result": "inversely related to nuclear matrix protein released"}]}
